Laboratory results reported in patent publication US20110275703A1, “SUBSTITUTED SPIROKETAL DERIVATIVES AND USE THEREOF AS THERAPEUTIC DRUG FOR DIABETES” (CHUGAI SEIYAKU KABUSHIKI KAISHA, priority 2007, published 2011).

Tests used:
[1] = target: T1, human SGLT2 (Homo sapiens, UniProt P31639); assay: Inhibitory activity against methyl-α-D-glucopyranoside uptake, CHO cells stably expressing human SGLT2; assay type: cell-based; conditions: inhibition of SGLT2, Table 2-1; read-out: IC50 value
T1 construct: expressed in transfected cells; host or cells: CHO-K1
T1 sequence (P31639 1-672): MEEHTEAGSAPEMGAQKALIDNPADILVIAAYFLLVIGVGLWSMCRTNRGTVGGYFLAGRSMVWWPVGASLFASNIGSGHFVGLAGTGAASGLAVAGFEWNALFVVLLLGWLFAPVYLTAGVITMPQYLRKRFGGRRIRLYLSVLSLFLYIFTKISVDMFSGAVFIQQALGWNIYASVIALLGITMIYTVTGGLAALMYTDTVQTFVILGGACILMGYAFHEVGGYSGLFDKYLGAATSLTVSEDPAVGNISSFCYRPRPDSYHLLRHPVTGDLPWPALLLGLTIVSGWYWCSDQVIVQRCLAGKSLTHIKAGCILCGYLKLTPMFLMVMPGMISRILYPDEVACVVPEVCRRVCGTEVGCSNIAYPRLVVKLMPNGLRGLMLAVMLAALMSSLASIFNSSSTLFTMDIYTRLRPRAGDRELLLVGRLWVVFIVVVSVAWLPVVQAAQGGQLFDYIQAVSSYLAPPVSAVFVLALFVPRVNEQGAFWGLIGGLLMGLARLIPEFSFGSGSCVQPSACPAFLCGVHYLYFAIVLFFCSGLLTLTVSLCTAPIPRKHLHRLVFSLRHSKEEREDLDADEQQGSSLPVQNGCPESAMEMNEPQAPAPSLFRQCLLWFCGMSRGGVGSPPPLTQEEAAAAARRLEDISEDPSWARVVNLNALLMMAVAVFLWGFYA
Description: Evaluation of inhibitory activity against methyl-α-D-glucopyranoside uptake of human Na^+-glucose cotransporter (SGLT1 and SGLT2)
2) Construction of Human SGLT2 Expression Vector
Human SGLT2 cDNA was amplified by PCR with a cDNA library derived from human kidney (Clontech) as a template, synthetic DNA primers and KOD+ DNA Polymerase. The amplified cDNA was inserted into pcRII-Topo vector by using a Topo TA Cloning Dual Promoter kit. E. coli competent cells (TPO10) were transformed with the plasmid vector, cultured in LB medium containing ampicillin (50 mg/L) to grow ampicillin-resistant clones. The plasmid vector containing human SGLT2 cDNA was purified from the clone in a standard manner. Human SGLT2 cDNA added restriction enzyme recognition sites (Xho I at 5′-end, Hind III at 3′-end) was amplified by PCR with the plasmid vector as a template, synthetic DNA primers containing an additional restriction enzyme recognition site and KOD+ DNA Polymerase. This amplified cDNA was digested with Xho I and Hind III, and ligated into expression vector pcDNA3.1(−) digested with Xho I and Hind III by using a Rapid DNA Ligation kit. E. coli competent cells (DH5α) were transformed with the ligated expression vector and grown in ampicillin-containing LB medium. Human SGLT2 expression vector was purified from the ampicillin-resistant clone in a standard manner.
3) Establishment of Cell Lines Stably Expressing Human SGLT1 or Human SGLT2
The human SGLT1 expression vector or the human SGLT2 expression vector was digested with the restriction enzyme Pvu I and transfected into CHO-Kl cells with FuGENE (Roche Diagonostics). After the transfection, the cells were cultured at 37° C. in the presence of 5% CO2 for about 3 weeks in DMEM medium (Gibco) containing penicillin (50 U/mL, SIGMA), streptomycin (50 mg/L, SIGMA), geneticin (200 mg/L, Nacalai Tesque, Inc., Japan) and 20% fetal bovine serum to obtain geneticin-resistant clones. Among these clones, clones stably expressing human SGLT1 or human SGLT2 were selected by the evaluating the sodium-dependent uptake activity of sugar (methyl-α-D-glucopyranoside).
4) Evaluation of Inhibitory Activity Against methyl-α-D-glucopyranoside uptake
Cell lines stably expressing human SGLT1 or human SGLT2 CHO were seeded in 96-well culture plates at a density of 30000 to 40000 cells/well and cultured for 4 to 6 days. The medium in these plates was removed and replaced by 150 μL/well pretreatment buffer (i.e., a buffer containing 140 mM choline chloride, 2 mM potassium chloride, 1 mM calcium chloride, 1 mM magnesium chloride, 10 mM 2-[4-(2-hydroxyethyl)-1-piperazinyl]ethanesulfonic acid and tris(hydroxymethyl)aminomethane, pH 7.4), and the plates were incubated at 37° C. for 20 minutes. The pretreatment buffer in the plates was removed, replaced by 50 μL/well fresh pretreatment buffer, and the plates were incubated at 37° C. for 20 minutes. Methyl-α-D-(U—^14C)glucopyranoside (6.3 mL, Amersham Pharmacia Biotech, 200 mCi/L) was added to and mixed with 100 mL buffer (i.e., a buffer containing 140 mM sodium chloride, 2 mM potassium chloride, 1 mM calcium chloride, 1 mM magnesium chloride, 1 mM methyl-α-D-glucopyranoside, 10 mM [4-(2-hydroxyethyl)-1-piperazinyl]ethanesulfonic acid and tris(hydroxymethyl)aminomethane, pH 7.4), which was used as uptake buffer. Test compounds were dissolved into uptake buffer and these test compound solutions were used for evaluating inhibitory activity. Uptake buffer without a test compound was used as a control solution. Moreover, for use in measuring baseline uptake in the absence of sodium, sodium-free solution was prepared in the same manner to contain 140 mM choline chloride instead of sodium chloride. The pretreatment buffer was removed from each well of the plates and replaced by 35 μL/well test compound solutions, control solution or sodium-free solution, and the plates were incubated at 37° C. for 45 minutes. […]

[2] = tested on: db/db mice; assay: Study for glucose lowering effect in db/db mouse; assay type: in vivo; conditions: for inhibition in vivo at 0.3 mg/kg: Mus musculus, po, 0.3 mg/kg administration, read-out: reduction of blood glucose 6 hours after administration; for inhibition in vivo at 0.3 mg/kg / Percent reduction of blood glucose (%) 6 hours after administration: 6 hours; for Percent reduction of blood glucose (%) 6 hours after administration / Percent reduction of blood glucose (%) 24 hours after administration: oral, relative to control group
Experimental: Study for Glucose Lowering Effect in dB/dB Mouse
A study for glucose lowering effect was conducted using db/db mice (purchased from Clea Japan, Inc., male, 9 to 11 weeks old), type 2 diabetic model mice. On the day of the study, body weights and blood glucose levels were measured prior to the start of testing. Measurement of the blood glucose levels was performed using a simple blood glucose meter (manufactured by Bayer HealthCare, Dexter-Z II). The mice were allocated to some groups consisting of 5 mice each so that homogeneity of body weights or blood glucose levels among groups would be ensured. Blood collection was carried out by making an incision on the tip of the tail and taking the blood therefrom. On the day of the study, the test compounds were suspended in 0.5% carboxymethylcellulose solution (CMC solution), and the dosing solutions of which concentration was adjusted to either 0.3 mg/10 mL or 3 mg/10 mL were prepared. The dosing solutions were orally administered by gavage for mice in 10 mL/kg. To the control group, only a 0.5% CMC solution was orally administered in 10 mL/kg. Blood was collected prior to or sequentially after administration of test compounds by above method. The blood glucose levels were determined using a hexokinase method (AutoSera S GLU, manufactured by Daiichi Pure Chemicals Co., Ltd.). A percent reduction of blood glucose relative to control group at each time point after administration of test compounds was calculated by the following equation.
Percent reduction of blood glucose (%)={blood glucose level in the control group (mg/dL)-blood glucose level in the test compound group (mg/dL)}/blood glucose level in the control group (mg/dL)×100

Compound | IC50 [1] [nM] | inhibition in vivo at 0.3 mg/kg [2] [%] | also measured
OC[C@H]1O[C@]2(OCc3cc(Cl)c(Cc4cccs4)cc32)[C@H](O)[C@@H](O)[C@@H]1O [Example 30, (1S,3′R,4′S,5′S,6′R)-5-chloro-3′,4′,5′,6′-tetrahydro-6′-(hydroxymethyl)-6-[(thiophen-2-yl)methyl]-spiro[isobenzofuran-1(3H),2′-[2H]pyran]-3′,4′,5′-triol] | 1.3 | ≥ 25 | –
CCOc1ccc(Cc2cc3c(cc2C)CO[C@]32O[C@H](CO)[C@@H](O)[C@H](O)[C@H]2O)cc1 [Example 24, (1S,3′R,4′S,5′S,6′R)-6-[(4-ethoxyphenyl)methyl]-3′,4′,5′,6′-tetrahydro-6′-(hydroxymethyl)-5-methyl-spiro[isobenzofuran-1(3H),2′-[2H]pyran]-3′,4′,5′-triol] | 1.8 | ≥ 25 | –
COc1ccc(Cc2cc3c(cc2F)CO[C@]32O[C@H](CO)[C@@H](O)[C@H](O)[C@H]2O)cc1 [Example 20, (1S,3′R,4′S,5′S,6′R)-5-fluoro-3′,4′,5′,6′-tetrahydro-6′-(hydroxymethyl)-6-[(4-methoxyphenyl)methyl]-spiro[isobenzofuran-1(3H),2′-[2H]pyran]-3′,4′,5′-triol] | 2.2 | ≥ 25 | –
CC(C)c1ccc(Cc2cc3c(cc2F)CO[C@]32O[C@H](CO)[C@@H](O)[C@H](O)[C@H]2O)cc1 [Example 19, (1S,3′R,4′S,5′S,6′R)-5-fluoro-3′,4′,5′,6′-tetrahydro-6′-(hydroxymethyl)-6-[(4-isopropylphenyl)methyl]-spiro[isobenzofuran-1(3H),2′-[2H]pyran]-3′,4′,5′-triol] | 2 | ≥ 25 | –
OC[C@H]1O[C@]2(OCc3cc(Cl)c(Cc4ccc(C(F)(F)F)cc4)cc32)[C@H](O)[C@@H](O)[C@@H]1O [Example 13, (1S,3′R,4′S,5′S,6′R)-5-chloro-6-[(4-trifluoromethylphenyl)methyl]-3′,4′,5′,6′-tetrahydro-6′-(hydroxymethyl)-spiro[isobenzofuran-1(3H),2′-[2H]pyran]-3′,4′,5′-triol] | 1.7 | ≥ 25 | –
OC[C@H]1O[C@]2(OCc3cc(Cl)c(Cc4cc5ccccc5s4)cc32)[C@H](O)[C@@H](O)[C@@H]1O [Example 28, (1S,3′R,4′S,5′S,6′R)-6-[(benzothiophen-2-yl)methyl]-5-chloro-3′,4′,5′,6′-tetrahydro-6′-(hydroxymethyl)-spiro[isobenzofuran-1(3H),2′-[2H]pyran]-3′,4′,5′-triol] | 1.4 | – | –
CCc1ccc(Cc2cc3c(cc2Cl)CO[C@]32O[C@H](CO)[C@@H](O)[C@H](O)[C@H]2O)s1 [Example 29, (1S,3′R,4′S,5′S,6′R)-5-chloro-6-[(5-ethylthiophen-2-yl)methyl]-3′,4′,5′,6′-tetrahydro-6′-(hydroxymethyl)-spiro[isobenzofuran-1(3H),2′-[2H]pyran]-3′,4′,5′-triol] | 1.5 | – | –
CC(C)c1ccc(Cc2ccc3c(c2)C2(OC3)OC(CO)C(O)C(O)C2O)cc1 (stereo not drawn) [Comparative Compound 2, 1,1-anhydro-1-C-[5-(4-isopropylphenyl)methyl-2-(hydroxymethyl)phenyl]-β-glucopyranose, reference compound] | – | – | Percent reduction of blood glucose (%) 6 hours after administration ([2]; 0.3 mg/kg, Table 3-1): 16%; Percent reduction of blood glucose (%) 6 hours after administration ([2]; 0.3 mg/kg, Table 3-2): 16%; Percent reduction of blood glucose (%) 24 hours after administration ([2]; 0.3 mg/kg, Table 3-2): 4.9%; Percent reduction of blood glucose (%) 6 hours after administration ([2]; 3.0 mg/kg, Table 3-2): 53%; Percent reduction of blood glucose (%) 24 hours after administration ([2]; 3.0 mg/kg, Table 3-2): 13%
OC[C@H]1O[C@]2(OCc3cc(Cl)c(Cc4ccc(CC(F)F)cc4)cc32)[C@H](O)[C@@H](O)[C@@H]1O [Example 10, (1S,3′R,4′S,5′S,6′R)-5-chloro-6-[(4-(2,2-difluoroethyl)phenyl)methyl]-3′,4′,5′,6′-tetrahydro-6′-(hydroxymethyl)-spiro[isobenzofuran-1(3H),2′-[2H]pyran]-3′,4′,5′-triol] | 1.2 | ≥ 25 | –
COc1ccc(Cc2cc3c(cc2Cl)CO[C@]32O[C@H](CO)[C@@H](O)[C@H](O)[C@H]2O)cc1 [Example 4, (1S,3′R,4′S,5′S,6′R)-5-chloro-3′,4′,5′,6′-tetrahydro-6′-(hydroxymethyl)-6-[(4-methoxyphenyl)methyl]-spiro[isobenzofuran-1(3H),2′-[2H]pyran]-3′,4′,5′-triol] | 1 | – | –
CSc1ccc(Cc2cc3c(cc2Cl)CO[C@]32O[C@H](CO)[C@@H](O)[C@H](O)[C@H]2O)cc1 [Example 3, (1S,3′R,4′S,5′S,6′R)-5-chloro-3′,4′,5′,6′-tetrahydro-6′-(hydroxymethyl)-6-[(4-(methylthio)phenyl)methyl]-spiro[isobenzofuran-1(3H),2′-[2H]pyran]-3′,4′,5′-triol] | 1.3 | – | –
Cc1ccc(Cc2cc3c(cc2Cl)CO[C@]32O[C@H](CO)[C@@H](O)[C@H](O)[C@H]2O)cc1 [Example 2, (1S,3′R,4′S,5′S,6′R)-5-chloro-3′,4′,5′,6′-tetrahydro-6′-(hydroxymethyl)-6-[(4-methylphenyl)methyl]-spiro[isobenzofuran-1(3H),2′-[2H]pyran]-3′,4′,5′-triol] | 1.2 | – | –
